# Tested on: CYP3A4
# Assay: Human CYP 3A4 induction assay (mRNA, cryopreserved human hepatocytes)
# Assay type: in vitro ADME
# Details: 10 uM test compound, 72 hours, percent of control (rifampin positive control)
# Experimental: Human CYP 3A4 Induction Assay
# Cryopreserved human hepatocytes were seeded in 96-well collagen coated plates at 70,000 cells per well in hepatocyte plating media (HPM, final concentrations: 1× Dulbecco's Modified Eagle's Medium, 0.1 μM dexamethasone, 10% fetal bovine serum, 1×ITS, 1×PSG) followed by incubation at 37° C. under 5% CO2 and 90% relative humidity for 2 days to allow hepatocytes to form a confluent layer. On Day 3, hepatocytes were treated with either test compound or rifampin (20 μM, positive control for CYP3A induction) prepared in hepatocyte incubation media ((HIM, final concentrations: 1× William's Medium E, 0.1 μM dexamethasone, 1×ITS, 1×PSG). Treatment was performed for 72 hours with either 2 concentrations (2 μM or 10 μM) or a range of concentrations (0.001 μM to 100 μM) of the test compound to obtain full dose-response curve. Fresh media containing the relevant concentrations of the test compound was replaced every day until the samples were processed. After 72 hours of incubation, samples were processed for mRNA analysis using bDNA technology using manufacturer's instructions (Affymetrix, Fremont, Calif.). Cell viability was tested at the end of the experiment using MTT assay kit (Roche Diagnostics, Basel, Switzerland). Data was analyzed and presented as percent of control (POC) and Emax and EC50 obtained when appropriate according to guidance from Center for Drug Evaluation and Research (CDER), 2006, Guidance for Industry, Drug Interaction Studies—Study Design, Data Analysis, and Implications for Dosing and Labeling.
# Cryopreserved human hepatocytes were seeded in 96-well collagen coated plates at 70,000 cells per well in hepatocyte plating media (HPM, final concentrations: 1× Dulbecco's Modified Eagle's Medium, 0.1 μM dexamethasone, 10% fetal bovine serum, 1×ITS, 1×PSG) followed by incubation at 37° C. under 5% CO2 and 90% relative humidity for 2 days to allow hepatocytes to form a confluent layer. On Day 3, hepatocytes were treated with either test compound or rifampin (20 μM, positive control for CYP3A induction) prepared in hepatocyte incubation media ((HIM, final concentrations: 1× William's Medium E, 0.1 μM dexamethasone, 1×ITS, 1×PSG). Treatment was performed for 72 hours with either 2 concentrations (2 μM or 10 μM) or a range of concentrations (0.001 μM to 100 μM) of the test compound to obtain full dose-response curve. Fresh media containing the relevant concentrations of the test compound was replaced every day until the samples were processed. After 72 hours of incubation, samples were processed for mRNA analysis using bDNA technology using manufacturer's instructions (Affymetrix, Fremont, Calif.). Cell viability was tested at the end of the experiment using MTT assay kit (Roche Diagnostics, Basel, Switzerland). Data was analyzed and presented as percent of control (POC) and Emax and EC50 obtained when appropriate, as described in Halladay, J. et al, 2012, An “all-inclusive” 96-well cytochrome P450 induction method: Measuring enzyme activity, mRNA levels, protein levels, and cytotoxicity from one well using cryopreserved human hepatocytes, Pharmacological and Toxicological Methods, 66:270-275.
# The cytochrome P450 (CYP) is a well-known superfamily of enzymes that are responsible for the oxidative and reductive metabolic transformation of medications used in clinical practice. In addition, the CYP enzymes are commonly associated with causing many clinically relevant drug-drug interactions. […]
row,SMILES,CYP3A4 mRNA Induct Hu 10 uM POC
1,"COc1cc([C@@H]2C[C@H]2C(F)(F)F)c(F)cc1-n1c(=O)ccc2cc(S(=O)(=O)Nc3ccon3)c(F)cc21 (atropisomer, axis not shown; (P)) [Example 45, (P)-7-fluoro-1-(5-fluoro-2-methoxy-4-((1R,2R)-2-(trifluoromethyl)cyclopropyl)phenyl)-N-(isoxazol-3-yl)-2-oxo-1,2-dihydroquinoline-6-sulfonamide]",24.57%
2,"COc1cc([C@@H]2C[C@H]2C(F)(F)F)c(F)cc1-n1c(=O)ccc2cc(S(=O)(=O)Nc3nncs3)ccc21 (atropisomer, axis not shown; (P)) [Example 40, (P)-1-(5-fluoro-2-methoxy-4-((1R,2R)-2-(trifluoromethyl)cyclopropyl)phenyl)-2-oxo-N-(1,3,4-thiadiazol-2-yl)-1,2-dihydroquinoline-6-sulfonamide]",10.79%

# Biological target: T1, Human NaV1.7 (Homo sapiens, UniProt Q15858)
# T1 construct: expressed in transfected cells; host or cells: Spiking HEK cells (without Kir2.1 transfection)
# Assay: Ionworks Barracuda (IWB) automated patch clamp assay
# Assay type: cell-based
# Details: human NaV1.7 in HEK cells, population patch-clamp, state- and use-dependent voltage protocol; read-out: hNaV1.7 IWB-U IC50
# Experimental: Ionworks Barracuda (IWB) Automated Patch Clamp Assay (Same Protocol for Both Human and Mouse)
# Human NaV1.7 currents were recorded in population patch-clamp mode with the IWB automated electrophysiology system (Molecular Devices, LLC, Sunnyvale, Calif.). Spiking HEK cells (without Kir2.1 transfection) were cultured and prepared for recordings as previously described for IonWorks Quattro testing^1. The external solution consisted of the following (in mM): NaCl 140, KCl 5, CaCl2 2, MgCl2 1, HEPES 10, and glucose 11, pH 7.4, with N-methyl-D-glucamine at 320 mOsmol. […] From a holding potential of −110 mV, currents were elicited by a train of 26 depolarizations of 150 ms duration to −20 mV at a frequency of 5 Hz. Cells were then clamped to −20 mV for a period of 4 minutes in the presence of a single concentration of test compound. Following this compound incubation period, cells were clamped to −110 mV for three seconds to recover unbound channels and put through the same 26 pulse voltage protocol as above. Peak inward current during the 26th pulse to −20 mV in the presence of compound was divided by the peak inward current evoked by the 26th pulse to −20 mV in the absence of compound to determine percent inhibition. Concentration-response curves of percent inhibition as a function of concentration were generated to calculate IC50 values as described in Kornecook, T. J.; Yin, R.; Altmann, S.; et al. Pharmacologic Characterization of AMG8379, a Potent and Selective Small Molecule Sulfonamide Antagonist of the Voltage-Gated Sodium Channel NaV1. 7.
# The potency of the compounds of the present invention were evaluated on human NaV1.7 channels using the above described IonWorks Barracuda automated electrophysiology platform that evaluates the ability of compounds to block sodium conductance through NaV1.7 channels. A voltage-protocol that prosecutes both state-dependent as well as use-dependent inhibition was used as these modes of action are thought to be more relevant for the native state of NaV1.7 channels in pain sensing neurons in vivo.
# T1 sequence (Q15858 whole entry): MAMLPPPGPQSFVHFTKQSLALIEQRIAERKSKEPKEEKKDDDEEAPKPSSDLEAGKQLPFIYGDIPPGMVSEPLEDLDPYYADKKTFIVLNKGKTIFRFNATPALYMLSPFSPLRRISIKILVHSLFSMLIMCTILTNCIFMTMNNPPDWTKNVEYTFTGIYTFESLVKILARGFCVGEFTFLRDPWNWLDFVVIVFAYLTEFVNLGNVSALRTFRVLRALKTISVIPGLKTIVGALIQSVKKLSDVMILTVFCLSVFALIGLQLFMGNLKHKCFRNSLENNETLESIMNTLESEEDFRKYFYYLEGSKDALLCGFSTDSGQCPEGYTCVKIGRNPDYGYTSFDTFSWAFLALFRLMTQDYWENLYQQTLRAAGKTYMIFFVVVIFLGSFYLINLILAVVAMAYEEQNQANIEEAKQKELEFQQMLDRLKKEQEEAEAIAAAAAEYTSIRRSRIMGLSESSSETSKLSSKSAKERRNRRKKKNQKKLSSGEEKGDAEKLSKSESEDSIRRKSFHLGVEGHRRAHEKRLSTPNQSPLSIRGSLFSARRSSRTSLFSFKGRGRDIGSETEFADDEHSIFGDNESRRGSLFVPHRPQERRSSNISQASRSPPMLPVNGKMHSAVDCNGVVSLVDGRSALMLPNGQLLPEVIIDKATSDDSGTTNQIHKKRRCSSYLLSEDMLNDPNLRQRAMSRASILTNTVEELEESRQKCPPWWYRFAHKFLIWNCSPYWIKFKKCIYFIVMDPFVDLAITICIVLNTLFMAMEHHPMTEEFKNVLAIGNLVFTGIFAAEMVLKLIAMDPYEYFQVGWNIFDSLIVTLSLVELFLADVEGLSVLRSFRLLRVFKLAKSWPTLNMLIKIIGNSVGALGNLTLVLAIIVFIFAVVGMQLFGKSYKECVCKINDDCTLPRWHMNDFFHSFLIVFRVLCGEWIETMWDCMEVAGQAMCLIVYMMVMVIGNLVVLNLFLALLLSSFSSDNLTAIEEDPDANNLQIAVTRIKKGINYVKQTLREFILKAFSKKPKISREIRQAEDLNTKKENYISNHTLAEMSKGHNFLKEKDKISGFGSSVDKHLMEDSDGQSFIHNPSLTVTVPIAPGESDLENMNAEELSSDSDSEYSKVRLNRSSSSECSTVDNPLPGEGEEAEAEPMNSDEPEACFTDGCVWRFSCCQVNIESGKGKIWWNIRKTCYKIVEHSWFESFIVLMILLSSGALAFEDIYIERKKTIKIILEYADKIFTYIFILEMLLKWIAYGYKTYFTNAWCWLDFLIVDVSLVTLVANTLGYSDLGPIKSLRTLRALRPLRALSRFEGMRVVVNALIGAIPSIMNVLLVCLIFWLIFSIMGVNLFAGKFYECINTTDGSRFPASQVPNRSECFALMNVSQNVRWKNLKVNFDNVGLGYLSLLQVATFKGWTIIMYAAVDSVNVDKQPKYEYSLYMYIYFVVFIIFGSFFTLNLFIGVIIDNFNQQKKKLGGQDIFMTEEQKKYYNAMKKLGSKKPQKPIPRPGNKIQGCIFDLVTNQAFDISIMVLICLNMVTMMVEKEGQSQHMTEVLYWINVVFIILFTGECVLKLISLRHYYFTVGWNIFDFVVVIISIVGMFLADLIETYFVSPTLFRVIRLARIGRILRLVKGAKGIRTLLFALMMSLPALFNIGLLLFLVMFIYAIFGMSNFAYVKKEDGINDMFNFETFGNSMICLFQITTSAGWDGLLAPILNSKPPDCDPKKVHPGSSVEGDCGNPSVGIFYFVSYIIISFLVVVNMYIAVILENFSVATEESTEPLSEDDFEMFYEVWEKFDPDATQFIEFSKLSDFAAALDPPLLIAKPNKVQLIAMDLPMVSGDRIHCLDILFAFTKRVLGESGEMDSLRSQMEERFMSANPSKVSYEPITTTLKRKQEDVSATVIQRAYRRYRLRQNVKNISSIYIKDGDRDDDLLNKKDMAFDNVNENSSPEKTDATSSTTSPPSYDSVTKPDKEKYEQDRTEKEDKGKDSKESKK
row,SMILES,IC50
1,"COc1cc([C@H]2C[C@@H]2c2ccccc2)c(F)cc1-n1c(=O)ccc2cc(S(=O)(=O)Nc3ccon3)ccc21 (atropisomer, axis not shown; (P)) [Example 9, (P)-1-(5-fluoro-2-methoxy-4-((1S,2S)-2-phenylcyclopropyl)phenyl)-N-(isoxazol-3-yl)-2-oxo-1,2-dihydroquinoline-6-sulfonamide]",4 nM
2,"COc1cc([C@H]2CC2(F)F)c(F)cc1-n1c(=O)ccc2cc(S(=O)(=O)Nc3ccon3)ccc21 (atropisomer, axis not shown; (P)) [Example 10, (P)-(R)-1-(4-(2,2-difluorocyclopropyl)-5-fluoro-2-methoxyphenyl)-N-(isoxazol-3-yl)-2-oxo-1,2-dihydroquinoline-6-sulfonamide]",66 nM
3,"COc1cc([C@H]2C[C@@H]2C)c(F)cc1-n1c(=O)ccc2cc(S(=O)(=O)Nc3ccon3)ccc21 (atropisomer, axis not shown; (P)) [Example 7, (P)-1-(5-fluoro-2-methoxy-4-((1S,2S)-2-methylcyclopropyl)phenyl)-N-(isoxazol-3-yl)-2-oxo-1,2-dihydroquinoline-6-sulfonamide]",16 nM
4,"COc1cc([C@@H]2C[C@H]2C(F)(F)F)c(F)cc1-n1c(=O)ccc2cc(S(=O)(=O)Nc3ccon3)ccc21 (atropisomer, axis not shown; (P)) [Example 5, (P)-1-(5-fluoro-2-methoxy-4-((1R,2R)-2-(trifluoromethyl)cyclopropyl)phenyl)-N-(isoxazol-3-yl)-2-oxo-1,2-dihydroquinoline-6-sulfonamide]",9 nM
5,"COc1cc([C@@H]2C[C@H]2C(F)(F)F)c(F)cc1-n1c(=O)cc(F)c2cc(S(=O)(=O)Nc3ccon3)ccc21 (atropisomer, axis not shown; (P)) [Example 44, (P)-4-fluoro-1-(5-fluoro-2-methoxy-4-((1R,2R)-2-(trifluoromethyl)cyclopropyl)phenyl)-N-(isoxazol-3-yl)-2-oxo-1,2-dihydroquinoline-6-sulfonamide]",5 nM
6,"COc1cc([C@@H]2C[C@H]2c2ccccc2)c(F)cc1-n1c(=O)ccc2cc(S(=O)(=O)Nc3ccon3)ccc21 (atropisomer, axis not shown; (P)) [Example 8, (P)-1-(5-fluoro-2-methoxy-4-((1R,2R)-2-phenylcyclopropyl)phenyl)-N-(isoxazol-3-yl)-2-oxo-1,2-dihydroquinoline-6-sulfonamide]",8 nM
7,"COc1cc([C@@H]2C[C@H]2C)c(F)cc1-n1c(=O)ccc2cc(S(=O)(=O)Nc3ccon3)ccc21 (atropisomer, axis not shown; (P)) [Example 6, (P)-1-(5-fluoro-2-methoxy-4-((1R,2R)-2-methylcyclopropyl)phenyl)-N-(isoxazol-3-yl)-2-oxo-1,2-dihydroquinoline-6-sulfonamide]",20 nM
8,"COc1cc([C@@H]2CC2(F)F)c(F)cc1-n1c(=O)ccc2cc(S(=O)(=O)Nc3ccon3)ccc21 (atropisomer, axis not shown; (P)) [Example 11, (P)-(S)-1-(4-(2,2-difluorocyclopropyl)-5-fluoro-2-methoxyphenyl)-N-(isoxazol-3-yl)-2-oxo-1,2-dihydroquinoline-6-sulfonamide]",59 nM

# More lines, now with the values ahead:
row,IC50,SMILES
1,13 nM,"COc1cc([C@H]2C[C@@H]2C(F)(F)F)c(C)cc1-n1c(=O)ccc2cc(S(=O)(=O)Nc3ccon3)ccc21 (single isomer, unassigned) [Example 27]"
2,17 nM,"COc1cc([C@H]2C[C@@H]2C(F)(F)F)c(Cl)cc1-n1c(=O)ccc2cc(S(=O)(=O)Nc3ncccn3)ccc21 (atropisomer, axis not shown; (P)) [Example 12, (P)-1-(5-chloro-2-methoxy-4-((1S,2S)-2-(trifluoromethyl)cyclopropyl)phenyl)-2-oxo-N-(pyrimidin-2-yl)-1,2-dihydroquinoline-6-sulfonamide]"
3,16 nM,"COc1cc([C@H]2C[C@@H]2C(F)(F)F)c(F)cc1-n1c(=O)ccc2cc(S(=O)(=O)Nc3cccnn3)ccc21 (atropisomer, axis not shown; (P)) [Example 17, (P)-1-(5-fluoro-2-methoxy-4-((1S,2S)-2-(trifluoromethyl)cyclopropyl)phenyl)-2-oxo-N-(pyridazin-3-yl)-1,2-dihydroquinoline-6-sulfonamide]"
4,11 nM,"COc1cc([C@H]2C[C@@H]2C(F)(F)F)c(F)cc1-n1c(=O)ccc2cc(S(=O)(=O)Nc3ccon3)c(F)cc21 (single isomer, unassigned) [Example 46]"
5,12 nM,"COc1cc([C@@H]2C[C@H]2C(F)(F)F)ccc1-n1c(=O)ccc2cc(S(=O)(=O)Nc3ccon3)c(F)cc21 (atropisomer, axis not shown; (P)) [Example 47, (P)-7-fluoro-N-(isoxazol-3-yl)-1-(2-methoxy-4-((1R,2R)-2-(trifluoromethyl)cyclopropyl)phenyl)-2-oxo-1,2-dihydroquinoline-6-sulfonamide]"
6,9 nM,"COc1cc([C@H]2C[C@@H]2C2CC2)c(F)cc1-n1c(=O)ccc2cc(S(=O)(=O)Nc3ccon3)ccc21 (atropisomer, axis not shown; (P)) [Example 31, (P)-1-(4-((1R,2S)-[1,1′-bi(cyclopropan)]-2-yl)-5-fluoro-2-methoxyphenyl)-N-(isoxazol-3-yl)-2-oxo-1,2-dihydroquinoline-6-sulfonamide]"

# Reference: US20230234948A1, “CYCLOPROPYL DIHYDROQUINOLINE SULFONAMIDE COMPOUNDS” (AMGEN INC., priority 2020, published 2023)
